Calls of active or inactive are those of the source. The rule behind the calls is not given here.
How the values were obtained:
MV4-11 [1] = assay: Antitumor activity against human MV4-11 cells xenografted in mouse assessed as tumor growth inhibition at 5 mg/kg, po administered for 20 days measured once every 2 days relative to control; type: functional; conditions: MV4-11, po, 480 h, time 20 day, read-out: TGI
[2] = MRT (0 to last) in Sprague-Dawley rat at 10 mg/kg, po; type: ADME, organism-based; conditions: in vivo
MOLM-13 [3] = assay: Induction of apoptosis in human MOLM-13 cells incubated for 24 hrs by flow cytometry; type: functional, cell-based
[4] = molecular target: Receptor-type tyrosine-protein kinase FLT3 (Homo sapiens, UniProt P36888, D835Y); assay: Inhibition of FLT3 D835Y mutant (unknown origin) incubated for 30 mins in presence of ATP by mobility shift assay
[5] = molecular target: Receptor-type tyrosine-protein kinase FLT3 (Homo sapiens) (UniProt P36888); assay: Inhibition of FLT3 in human MV4-11 cells assessed as reduction in autophosphorylation at tyr589/591 residue incubated for 2 hrs by Western blot analysis; type: cell-based
[6] = system: Receptor-type tyrosine-protein kinase FLT3 (Homo sapiens), P36888 [D835H]; assay: Binding affinity to FLT3 D835H mutant (unknown origin) at 1000 nM relative to control
[7] = AUC (0 to infinity) in Sprague-Dawley rat at 1 mg/kg, iv; type: ADME, organism-based; parameters: route intravenous, time infinity, dose 1 mg/kg; conditions: in vivo
[8] = molecular target: Vascular endothelial growth factor receptor 1 (Homo sapiens, UniProt P17948); assay: Inhibition of VEGFR1 (unknown origin) incubated for 30 mins in presence of ATP by mobility shift assay
[9] = molecular target: Receptor-type tyrosine-protein kinase FLT3 (Homo sapiens) (UniProt P36888); assay: Inhibition of FLT3 in human MV4-11 cells assessed as reduction in STAT5 phosphorylation at 10 uM incubated for 2 hrs by Western blot analysis; type: cell-based
MDA-MB-231 = assay: Antiproliferative activity against human MDA-MB-231 cells measured after 72 hrs by CCK8 assay; type: functional, cell-based; conditions: MDA-MB-231, 72 h
MV4-11 [10] = assay: Induction of apoptosis in human MV4-11 cells incubated for 24 hrs by flow cytometry; type: functional, cell-based
[11] = Toxicity in mouse xenografted with human MV4-11 cells assessed as effect on kidney at 2.5 to 10 mg/kg, po administered for 16 days by hematoxylin and eosin staining assay; type: organism-based; conditions: in vivo, 384 h, dose 2.5-10 mg/kg, time 16 day
[12] = molecular target: Vascular endothelial growth factor receptor 2 (Homo sapiens, UniProt P35968); assay: Inhibition of VEGFR2 (unknown origin) incubated for 30 mins in presence of ATP by mobility shift assay
MOLM-13 [13] = assay: Induction of cell cycle arrest in human MOLM-13 cells assessed as accumulation at S phase at 100 nM incubated for 24 hrs by flow cytometry (reference value: 16.28%); type: functional
HCT-116 = assay: Antiproliferative activity against human HCT116 cells measured after 72 hrs by CCK8 assay; type: functional, cell-based; conditions: HCT-116, 72 h
Homo sapiens = species on record: Homo sapiens; assay: Binding affinity to FLT3 ITD D835V mutant (unknown origin) at 1000 nM relative to control
[14] = molecular target: Platelet-derived growth factor receptor beta (Homo sapiens, UniProt P09619); assay: Inhibition of PDGFRbeta (unknown origin) incubated for 30 mins in presence of ATP by mobility shift assay
U-937 = assay: Antiproliferative activity against human U-937 cells measured after 72 hrs by CCK8 assay; type: functional, cell-based; conditions: U-937, 72 h
[15] = system: Receptor-type tyrosine-protein kinase FLT3 (Homo sapiens), P36888 [D835V]; assay: Binding affinity to FLT3 D835V mutant (unknown origin) at 1000 nM relative to control
Mus musculus = assay: Induction of tumor recurrence mouse xenografted with human MOLM-13 cells at 10 to 40 mg/kg, po; type: functional, organism-based; conditions: dose 10-40 mg/kg
[16] = molecular target: Receptor-type tyrosine-protein kinase FLT3 (Homo sapiens) (UniProt P36888); assay: Inhibition of FLT3 in human MOLM-13 cells assessed as reduction in STAT5 phosphorylation incubated for 2 hrs by Western blot analysis; type: cell-based
MV4-11 [17] = assay: Antitumor activity against human MV4-11 cells xenografted in mouse assessed as tumor growth inhibition at 2.5 mg/kg, po administered for 20 days measured once every 2 days relative to control; type: functional; conditions: MV4-11, po, 480 h, time 20 day, read-out: TGI
MOLM-13 [18] = assay: Antitumor activity against human MOLM-13 cells xenografted in po dosed mouse assessed as induction of apoptosis administered for 16 days measured once for every 2 days by caspase3 staining based immunohistochemical analysis; type: functional, organism-based; conditions: time 16.0 day
[19] = Toxicity in mouse xenografted with human MOLM-13 cells assessed as effect on liver at 10 to 40 mg/kg, po administered for 20 days by hematoxylin and eosin staining assay; type: organism-based; conditions: in vivo, 480 h, dose 10-40 mg/kg, time 20 day
MOLM-13 [20] = assay: Antitumor activity against human MOLM-13 cells xenografted in po dosed mouse assessed as inhibition of tumor cell proliferation administered for 16 days measured once for every 2 days by Ki67 staining based immunohistochemical analysis; type: functional, organism-based; conditions: time 16.0 day
[21] = system: Receptor-type tyrosine-protein kinase FLT3 (Homo sapiens), P36888 [N841I]; assay: Binding affinity to FLT3 N841I mutant (unknown origin) at 1000 nM relative to control
[22] = Tmax in Sprague-Dawley rat at 10 mg/kg, po; type: ADME, organism-based; conditions: in vivo
MOLM-13 [23] = assay: Antitumor activity against human MOLM-13 cells xenografted in mouse assessed as tumor regression at 40 mg/kg, po administered for 16 days measured on day 4 relative to control; type: functional; conditions: time 16 day
[24] = Toxicity in mouse xenografted with human MV4-11 cells assessed as effect on liver at 2.5 to 10 mg/kg, po administered for 16 days by hematoxylin and eosin staining assay; type: organism-based; conditions: in vivo, 384 h, dose 2.5-10 mg/kg, time 16 day
MOLM-13 [25] = assay: Induction of apoptosis in human MOLM-13 cells assessed as early apoptotic cells at 1 nM incubated for 24 hrs by flow cytometry (reference value: 2.18%); type: functional
MOLM-13 [26] = assay: Antitumor activity against human MOLM-13 cells xenografted in mouse assessed as tumor growth inhibition at 20 mg/kg, po administered for 16 days measured once every 2 days relative to control; type: functional; conditions: MOLM-13, po, 384 h, time 16 day, read-out: TGI
THP-1 = assay: Antiproliferative activity against human THP-1 cells measured after 72 hrs by CCK8 assay; type: functional, cell-based; conditions: THP-1, 72 h
HeLa = assay: Antiproliferative activity against human HeLa cells measured after 72 hrs by CCK8 assay; type: functional, cell-based
MOLM-13 [27] = assay: Antiproliferative activity against human quizartinib-resistant MOLM-13 cells at 333 nM incubated for 72 hrs by CCK8 assay relative to control; type: functional
[28] = AUC (0 to last) in Sprague-Dawley rat at 1 mg/kg, iv; type: ADME, organism-based; parameters: route intravenous, time 0 - last, dose 1 mg/kg; conditions: in vivo
MV4-11 [29] = assay: Induction of cell cycle arrest in human MV4-11 cells assessed as accumulation at sub-G1 phase at 1 nM incubated for 24 hrs by flow cytometry (reference value: […]%); type: functional
MOLM-13 [30] = assay: Induction of apoptosis in human MOLM-13 cells assessed as viable cells at 10 nM incubated for 24 hrs by flow cytometry (reference value: 92.83%); type: functional; conditions: read-out: Activity
[31] = Toxicity in mouse xenografted with human MOLM-13 cells assessed as effect on kidney at 10 to 40 mg/kg, po administered for 20 days by hematoxylin and eosin staining assay; type: organism-based; conditions: in vivo, 480 h, dose 10-40 mg/kg, time 20 day

Platelet-derived growth factor receptor beta, sequence (P09619 whole entry): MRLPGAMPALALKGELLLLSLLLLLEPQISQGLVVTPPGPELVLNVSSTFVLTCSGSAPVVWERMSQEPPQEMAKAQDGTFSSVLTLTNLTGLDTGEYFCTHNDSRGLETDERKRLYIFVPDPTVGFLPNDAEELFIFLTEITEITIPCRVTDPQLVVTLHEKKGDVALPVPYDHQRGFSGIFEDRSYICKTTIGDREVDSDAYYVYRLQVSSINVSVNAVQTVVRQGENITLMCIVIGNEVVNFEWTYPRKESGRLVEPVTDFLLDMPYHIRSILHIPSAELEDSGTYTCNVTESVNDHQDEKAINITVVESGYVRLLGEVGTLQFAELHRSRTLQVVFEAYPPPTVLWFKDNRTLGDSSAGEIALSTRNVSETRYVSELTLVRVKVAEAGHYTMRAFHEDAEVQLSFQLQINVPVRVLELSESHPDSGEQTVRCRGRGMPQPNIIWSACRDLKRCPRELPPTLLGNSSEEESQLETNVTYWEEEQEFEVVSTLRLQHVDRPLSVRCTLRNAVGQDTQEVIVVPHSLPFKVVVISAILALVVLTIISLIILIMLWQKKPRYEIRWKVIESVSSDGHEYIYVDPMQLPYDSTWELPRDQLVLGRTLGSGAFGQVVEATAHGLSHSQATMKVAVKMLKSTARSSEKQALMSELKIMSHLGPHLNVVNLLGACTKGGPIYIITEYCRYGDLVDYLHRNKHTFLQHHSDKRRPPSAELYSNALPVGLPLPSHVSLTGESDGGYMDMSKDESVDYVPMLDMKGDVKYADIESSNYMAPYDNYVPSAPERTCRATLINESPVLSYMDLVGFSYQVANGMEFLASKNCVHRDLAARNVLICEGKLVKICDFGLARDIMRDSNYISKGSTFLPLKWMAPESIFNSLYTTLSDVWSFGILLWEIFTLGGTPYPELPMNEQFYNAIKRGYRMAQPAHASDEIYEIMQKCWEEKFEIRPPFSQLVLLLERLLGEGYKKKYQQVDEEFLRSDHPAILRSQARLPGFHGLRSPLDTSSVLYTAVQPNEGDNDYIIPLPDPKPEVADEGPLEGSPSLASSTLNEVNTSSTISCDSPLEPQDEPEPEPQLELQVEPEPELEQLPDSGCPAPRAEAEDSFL
Vascular endothelial growth factor receptor 2, sequence (P35968 whole entry): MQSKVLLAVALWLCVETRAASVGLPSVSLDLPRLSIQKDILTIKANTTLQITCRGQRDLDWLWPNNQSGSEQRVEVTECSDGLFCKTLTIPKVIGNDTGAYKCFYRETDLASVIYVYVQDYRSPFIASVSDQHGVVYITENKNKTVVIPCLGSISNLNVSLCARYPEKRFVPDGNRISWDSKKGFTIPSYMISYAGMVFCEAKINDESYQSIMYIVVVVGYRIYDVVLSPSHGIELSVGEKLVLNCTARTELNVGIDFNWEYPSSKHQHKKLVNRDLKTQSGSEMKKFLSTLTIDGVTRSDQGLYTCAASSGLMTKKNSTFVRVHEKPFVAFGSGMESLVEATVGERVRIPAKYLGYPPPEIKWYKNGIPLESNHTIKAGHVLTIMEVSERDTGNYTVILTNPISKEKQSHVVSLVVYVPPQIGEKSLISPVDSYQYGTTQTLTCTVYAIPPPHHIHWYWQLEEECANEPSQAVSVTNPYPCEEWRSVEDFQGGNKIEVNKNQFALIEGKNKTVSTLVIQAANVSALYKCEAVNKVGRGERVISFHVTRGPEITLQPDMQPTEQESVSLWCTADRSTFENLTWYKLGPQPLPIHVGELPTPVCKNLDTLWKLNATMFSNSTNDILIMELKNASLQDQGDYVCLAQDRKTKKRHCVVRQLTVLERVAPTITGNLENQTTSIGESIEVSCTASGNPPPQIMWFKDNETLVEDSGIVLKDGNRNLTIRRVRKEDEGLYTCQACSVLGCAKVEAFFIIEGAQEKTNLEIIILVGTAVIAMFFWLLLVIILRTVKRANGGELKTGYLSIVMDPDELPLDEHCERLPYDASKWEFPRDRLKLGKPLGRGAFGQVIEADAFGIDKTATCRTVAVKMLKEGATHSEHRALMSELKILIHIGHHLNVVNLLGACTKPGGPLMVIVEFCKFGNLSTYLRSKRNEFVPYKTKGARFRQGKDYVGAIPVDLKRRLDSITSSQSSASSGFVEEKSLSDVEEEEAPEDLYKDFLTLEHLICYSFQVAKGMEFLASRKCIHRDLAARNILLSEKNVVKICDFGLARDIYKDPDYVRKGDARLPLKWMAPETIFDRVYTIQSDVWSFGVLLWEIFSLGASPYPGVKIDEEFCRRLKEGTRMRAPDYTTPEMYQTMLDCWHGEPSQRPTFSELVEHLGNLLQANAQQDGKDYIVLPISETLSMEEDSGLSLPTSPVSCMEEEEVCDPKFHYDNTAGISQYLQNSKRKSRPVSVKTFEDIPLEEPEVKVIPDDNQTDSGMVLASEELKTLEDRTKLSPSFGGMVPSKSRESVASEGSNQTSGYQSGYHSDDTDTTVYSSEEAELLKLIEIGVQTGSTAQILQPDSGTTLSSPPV
Vascular endothelial growth factor receptor 1, sequence (P17948 whole entry): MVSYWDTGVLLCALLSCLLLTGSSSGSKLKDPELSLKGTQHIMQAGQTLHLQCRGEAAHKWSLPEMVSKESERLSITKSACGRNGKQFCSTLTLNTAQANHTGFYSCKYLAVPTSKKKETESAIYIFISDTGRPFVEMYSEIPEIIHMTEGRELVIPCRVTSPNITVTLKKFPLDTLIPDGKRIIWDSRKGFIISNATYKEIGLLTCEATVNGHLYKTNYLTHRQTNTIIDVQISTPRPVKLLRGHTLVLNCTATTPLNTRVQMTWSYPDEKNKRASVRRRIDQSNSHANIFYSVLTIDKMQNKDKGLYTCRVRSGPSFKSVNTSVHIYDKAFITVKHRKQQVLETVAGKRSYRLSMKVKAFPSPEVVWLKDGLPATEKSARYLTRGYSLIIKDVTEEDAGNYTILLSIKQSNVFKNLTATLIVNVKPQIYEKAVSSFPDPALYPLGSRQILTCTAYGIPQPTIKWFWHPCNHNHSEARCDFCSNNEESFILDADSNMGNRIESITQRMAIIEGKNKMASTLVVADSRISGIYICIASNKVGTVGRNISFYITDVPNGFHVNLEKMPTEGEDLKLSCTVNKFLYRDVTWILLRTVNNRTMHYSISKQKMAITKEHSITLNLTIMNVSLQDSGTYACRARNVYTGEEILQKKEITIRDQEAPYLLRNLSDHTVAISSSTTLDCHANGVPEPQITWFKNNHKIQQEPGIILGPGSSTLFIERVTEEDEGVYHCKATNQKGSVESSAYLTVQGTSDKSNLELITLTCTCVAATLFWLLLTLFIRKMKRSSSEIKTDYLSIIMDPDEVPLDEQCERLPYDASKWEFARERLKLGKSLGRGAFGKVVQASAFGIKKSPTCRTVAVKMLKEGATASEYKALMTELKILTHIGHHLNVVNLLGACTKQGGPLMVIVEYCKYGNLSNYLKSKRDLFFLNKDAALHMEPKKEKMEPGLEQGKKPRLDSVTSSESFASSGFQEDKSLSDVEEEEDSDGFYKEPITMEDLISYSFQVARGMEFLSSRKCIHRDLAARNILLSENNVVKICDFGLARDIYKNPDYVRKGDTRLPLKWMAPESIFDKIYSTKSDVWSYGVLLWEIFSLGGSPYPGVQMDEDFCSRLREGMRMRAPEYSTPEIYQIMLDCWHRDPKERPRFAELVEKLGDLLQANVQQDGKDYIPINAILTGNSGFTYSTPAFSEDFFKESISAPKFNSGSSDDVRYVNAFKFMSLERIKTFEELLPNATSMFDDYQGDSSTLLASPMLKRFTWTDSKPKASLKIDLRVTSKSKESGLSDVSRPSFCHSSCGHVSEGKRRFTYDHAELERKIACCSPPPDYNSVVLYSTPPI

## CCN(CC)CCNC(=O)c1c(C)[nH]c(/C=C2\C(=O)Nc3ccc(F)cc32)c1C [SUNITINIB]
MV4-11 [1]
  inhibition in vivo at 5 mg/kg: 29.9%

## Cc1c(NC(=O)CCN2CCCC2)c[nH]c1/C=C1\C(=O)Nc2ccc(F)cc21
[2]
  MRT last: 6.6 h
MOLM-13 [3]
  Activity: Dose-Dependent Effect
[4]
  IC50: 1.9 nM
[5]
  Activity: Dose-Dependent Effect
[6]
  Activity: Active
[7]
  AUC(0-inf): 2970 ng·h/mL
[8]
  IC50: 120 nM
[9]
  Activity: Active
MDA-MB-231
  IC50: 1830 nM
MV4-11 [10]
  Activity: Dose-Dependent Effect
[11]
  Activity: Non-Toxic
[12]
  IC50: 137 nM
MOLM-13 [13]
  Activity: 4.16%
HCT-116
  IC50: 3980 nM
Homo sapiens
  Activity: Active
[14]
  IC50: 41.8 nM
U-937
  IC50: 5260 nM
[15]
  Activity: Active
Mus musculus
  Activity: inactive
[16]
  Activity: Dose-Dependent Effect
MV4-11 [17]
  inhibition in vivo at 2.5 mg/kg: 55.7%
MOLM-13 [18]
  Activity: Dose-Dependent Effect
[19]
  Activity: Non-Toxic
MOLM-13 [20]
  Activity: Dose-Dependent Effect
[21]
  Activity: Active
[22]
  Tmax: 2.7 h
MOLM-13 [23]
  Activity: 100%
[24]
  Activity: Non-Toxic
MOLM-13 [25]
  Activity: 3.69%
MOLM-13 [26]
  inhibition in vivo at 20 mg/kg: 98%
THP-1
  IC50: 3150 nM
HeLa
  IC50: 1960 nM
MOLM-13 [27]
  Activity: 13.4%
[28]
  AUC(0-t): 2880 ng·h/mL
MV4-11 [29]
  Activity: 13.92%
MOLM-13 [30]
  viability at 0.01 µM: 62.3%
[31]
  Activity: Non-Toxic

— ChEMBL document CHEMBL4823252 (J Med Chem, 2021)
